# Assay results taken from a melting point compilation (Tetko et al.; mined from patent text by program, amines drawn as free bases though some values may be those of a salt).
row,melting point,Structure (SMILES)
1,140 to 142 °C,Cc1cc(C)c(S(=O)(=O)Nc2cccnc2Nc2ccccc2)c(C)c1
2,143 to 144 °C,CC(C)OC(=O)c1ccccc1SN(C(=O)NC(=O)c1ccccc1Cl)c1ccc(OC(F)(F)F)cc1
3,77 to 79 °C,COC(=O)C(C(=O)OC)c1ccc(Br)cc1
4,170 to 175 °C,COCc1cc(OC)c(-c2ccc(C[C@H](NC(=O)c3c(F)cccc3Cl)C(=O)O)cc2)c(OC)c1
5,120 °C,CCC(C)N(C(=O)c1cc(-c2ccccc2Cl)nc2ccccc12)C(C)CC (stereo not drawn)
6,74 °C,CCNc1nc(NCC)nc(NCC)n1
7,155 to 156 °C,O=C(O)C(=O)CC(=O)c1cccn1Cc1ccccc1F
8,149 to 151 °C,Cc1noc(-c2ccccc2)c1CCC(N)=O
9,75.5 to 76.5 °C,CCOC(=O)c1cc2ccc(Cl)cc2n1C
10,184 to 186 °C,CC(=O)N1CCC(c2nc(N)nc3ccccc23)CC1
11,174 °C,Cc1ccc(-c2occc2C(N)=O)cc1
12,194 to 197 °C,Brc1ccc2c(c1Cc1cccc3cnccc13)OCO2
13,252 to 253 °C,COc1cc(Cl)c2nc(Cl)nc(O)c2c1OC
14,199 to 201 °C,COc1cc(OC)nc(Sc2sccc2[N+](=O)[O-])n1
15,127 to 128 °C,COc1ccnc(CCc2nc3cc(-c4ccc(S(=O)(=O)N(CCO)CCO)cc4)cnc3[nH]2)c1
16,75 °C,N#Cc1ccc(C=O)c(-c2ccccc2)c1
17,112 to 114 °C,CC(C)(O)CCCCCc1ccc(C=Cc2ccc(CO)c(CO)c2)cc1
18,94 to 96 °C,COc1ccc(CC(NC(=O)OC(C)(C)C)C(=O)O)cc1 (stereo not drawn)
19,113 to 115 °C,CC(C)c1cnc(NC(=O)Nc2cccc(N)c2)s1
20,139 °C,O=c1[nH]c2ccccc2n1CCCN1CCN(C(c2ccccc2)c2ccccc2Cl)CC1 (stereo not drawn)
21,176 °C,O=[N+]([O-])c1cc(F)c(NS(=O)(=O)c2ccccc2)cc1F
22,109 to 112 °C,COc1cc(C=O)cc(C#N)c1OC
23,108 to 110 °C,FC(F)(F)Oc1ccc(-c2cc(-n3ccc(C(F)(F)F)n3)c3ccccc3n2)cc1

row,melting point,Structure (SMILES)
1,109 to 111 °C,C#CCNC(=O)c1c(I)cccc1[Si](C)(C)C
2,128 to 129 °C,CC(=O)SCc1ccc(C#Cc2ccc(C=O)cc2)cc1
3,196 to 197 °C,CCSC1CCC2C3CCC4=CC(=O)C=CC4(C)C3(F)C(O)CC12C (stereo not drawn)
4,126 to 130 °C,CC(=O)Oc1ccc(C)cc1[C@H](CCN(C(C)C)C(C)C)c1ccccc1
5,89 to 90 °C,Nc1ccc2ncnc(Nc3ccc(Oc4ccccc4)cc3)c2c1
6,149 to 152 °C,COc1ccc(Cn2c(C)c(Br)c3cnnc(OCc4ccccc4)c32)cc1
7,129 to 130 °C,O=C(O)Cc1cccc(OCc2cn(-c3ccc(C(F)(F)F)cn3)nc2C2CCCCC2)c1
8,196 °C,Cc1cc(-c2ccc(C(F)(F)F)cc2)cc(-c2ccnc(-c3cccc(NS(C)(=O)=O)c3)c2)n1
9,259 to 261 °C,O=C(O)C1=CC2(CCSCC2)Oc2ccc([N+](=O)[O-])cc21
10,193 to 195 °C,Cc1ccc2nc3cc(C)c(=O)c(Cl)c-3sc2c1
11,141 to 145 °C,CCOC(=O)Cn1c(=O)n(Cc2ccc(Cl)c(Cl)c2)c(=O)c2c(C)c(Cl)sc21
12,55 to 72 °C,Cc1oc(-c2ccccc2)nc1C(O)COc1ccc(CC2SC(=O)NC2=O)nc1 (stereo not drawn)
13,200 to 201 °C,OC1CSC(Oc2cncc(-c3ccc(F)c(Cl)c3)c2)C(O)C1O (stereo not drawn)
14,177 to 179 °C,CC(C)=CCOc1ccc(C(=O)C=Cc2cccnc2)c(O)c1
15,220 to 222 °C,N#Cc1cnc2cc(Cl)c([N+](=O)[O-])cc2c1Nc1ccc(Oc2ccccc2)cc1
16,153 to 155 °C,O=C1CCC(N2C(=O)c3cccc(OCc4ccc(CN5CCC(c6ccc(F)cc6F)CC5)cc4)c3C2=O)C(=O)N1 (stereo not drawn)
17,87.8 to 87.9 °C,COCCOc1ccc(CCCOC(=O)NCC2CC2)c(Oc2ncc(C(F)(F)F)cc2Cl)c1
18,151 °C,CC(C)(C)c1cc2c(c(C(=O)Nc3ccc(S(=O)(=O)C(F)(F)F)cc3Cl)c1O)CCCC2
19,170 to 172 °C,CC(C)C(=O)O[C@H]1[C@H](C)OC(=O)[C@@H](NC(=O)OC(C)(C)C)COC(=O)[C@@H]1CC(=O)OC(C)(C)C
20,149 °C,N#Cc1ccc2c(c1)CC[C@@H](c1ccc(F)cc1)[C@H]2Cn1cncn1 (relative stereo)
21,164 °C,CNC(=O)COc1ccc2c(-c3ccccc3F)noc2c1Cl
22,246 to 248 °C,CNC1CCN(c2c(F)cc3c(=O)c(C(=O)O)cn(C4CC4)c3c2OC)CC1(C)C (stereo not drawn)
23,257 to 258 °C,O=C(C(=O)N1CCC(c2nnnn2-c2ccccc2)CC1)c1c[nH]c2c(-n3ccnn3)ncc(F)c12

row,melting point,Structure (SMILES)
1,191 to 192 °C,O=C(Nc1ccc(CCNc2ncccn2)cc1)c1cccs1
2,171 to 177 °C,Cc1nnc(-c2ccc(F)cc2)n2nc(OCc3ncnn3C)c(-c3ccsc3)c12
3,170 to 172 °C,Fc1cc(F)c(-c2cncn2-c2ccc(Cl)cc2)c(F)c1
4,170 to 171 °C,CCc1ccc(-c2c(Cl)c(CN3C(=O)CCC3=O)nc3sc4c(c23)CCN(C(=O)OCc2ccccc2)C4)cc1
5,140 to 142 °C,O=S1CCc2n[nH]c(CCCN3CCN(c4ccc(F)cc4)CC3)c2C1 (stereo not drawn)
6,224 to 225 °C,Nc1nnc2c3c(c(Cl)nn12)CCCC3
7,174 to 177 °C,Cc1cc(-c2cccc(CO)c2)cn2cc(-c3ccc(Cl)cc3)nc12
8,200 to 201 °C,COc1ccc2c(c1)-c1n[nH]c(-c3ccncc3)c1CCC2
9,103 to 104 °C,Cc1noc(CCCCCCCOc2ccc(C3=NCCO3)cc2)c1CCl
10,110 to 112 °C,CCCCCCOc1ccc2c(CBr)c(OCCCCCC)ccc2c1CBr
11,134 to 135 °C,COc1ccc(CNc2ccccc2C(=O)Nc2cccc(C(F)(F)F)c2C)cn1
12,138 °C,Cc1cc(C(N)(C(F)(F)F)C(F)(F)F)cc(C)c1OCC(=O)O
13,> 300 °C,C[Si](C)(C)CCOCn1cc(C#N)c(=O)c2cc(N)c(N)cc21
14,212 to 214 °C,Cn1cc(-c2nnc(-c3ccncc3)o2)c2ccccc21
15,90 to 95 °C,Cc1cc(CNC(=O)c2cc(-c3ccc(-c4ccccc4)cc3)nn2C)ccc1OC(C)(C)C(=O)O
16,118 to 120 °C,COc1ccc(C(=O)c2ccc(Sc3ccc(Cl)cc3)cc2)cc1OC
17,233 to 235 °C,Fc1ccc2[nH]c3c(c2c1)CN(CCc1ccncc1)CC3
18,218 to 222 °C,CCCc1c(OCc2cccc(OCc3ccc4ccccc4n3)c2)ccc2c(=O)cc(C(=O)O)oc12
19,145 °C,O=C(NO)c1cc2c(Oc3ccc(Cl)cc3)cncc2s1
20,41 to 42 °C,COc1ccc(C2(C#Cc3ccccn3)CCC3(CC2)OCCO3)cc1OC1CCCC1
21,70 to 72 °C,CCC(=O)Cc1nc2ccccc2c(=O)o1
22,44 to 45 °C,CO[C@@H]1CN(Cc2ccccc2)C[C@H]1NC(=O)OC(C)(C)C
23,117 to 118 °C,Clc1ccc(-c2cc[nH]c2)cc1

row,melting point,Structure (SMILES)
1,72 to 73 °C,C[C@@H]1Cc2cc(N3C[C@H](COS(C)(=O)=O)OC3=O)ccc2N1C(=O)OCc1ccccc1
2,164 °C,CCC(=O)OC1(C(=O)CCl)C(C)CC2C3CCC4CC(=O)CCC4(C)C3(Cl)C(Cl)CC21C (stereo not drawn)
3,123 to 125 °C,CC(C)(C)OC(=O)NN(C(=O)OC(C)(C)C)C1(c2cccnc2)CCCCC1=O (stereo not drawn)
4,254 to 256 °C,c1cc(-c2cnco2)cc(-c2ncc(-c3cccc(-c4cnc(-c5cccc(-c6cnco6)c5)o4)n3)o2)c1
5,160 to 162 °C,CCCCCCCOc1ccc2c(c1)Nc1cccc(S(=O)(=O)N(C)C)c1S2
6,235 °C,O=C(N[C@H]1CC[C@H](CCN2CCN(c3nccc4c3OCC4)CC2)CC1)c1ccc(-c2cccnc2)cc1
7,120 to 121 °C,COc1cc(COc2cc(C#N)n(-c3ccccc3)n2)ccc1OCc1nc(-c2ccccc2)oc1C
8,165 to 168 °C,CCOC(=O)COC(=O)c1cc2c(cn1)[nH]c1ccccc12
9,112 to 114 °C,CCOC(=O)CC(=O)N(C)c1ccc(Cl)cc1N
10,131 to 133 °C,CC(=O)Nc1c(C(=O)c2ccccc2)[nH]c2cccc(F)c12
11,119 to 120 °C,CS(=O)(=O)NC(=O)C1(CCCCCCCCCCCCC2(C(N)=O)CC2)CC1
12,138 °C,Cc1ccccc1OCC1COC(Cn2ccnc2)(c2ccc(Cl)cc2Cl)O1 (stereo not drawn)
13,130 to 135 °C,CCOC(=O)c1ccc(N)c(C(CCNC(=O)OC(C)(C)C)=NOC(C)=O)c1
14,233 °C,Cc1cc(Nc2ccnc(Nc3ccc(S(=O)(=O)N4CCC(O)(CN(C)C)CC4)cc3)n2)ccc1F
15,140 to 143 °C,Cc1onc(-c2ccccc2)c1-c1cc(F)c(S(C)(=O)=O)c(F)c1
16,134 °C,CCCCCCN(CCCCCC)c1ccc(C2=C(C#N)C(=C(C#N)C#N)OC2(C)C)s1
17,246 to 248 °C,CNc1nc(-c2cccc(NC(=O)c3ccc(S(C)=O)cc3)c2)c2cc(OC)c(OC)cc2n1 (stereo not drawn)
18,114 °C,CC1(C)CCC(C)(C)C1C(=O)O
19,90 to 94 °C,Cc1c(C)c2c(c(C)c1O)CCC(C)(C(=O)NCC1(c3ccc(-n4c(C)ccc4C)cc3)CCCC1)O2 (stereo not drawn)
20,103 to 105 °C,CCCCCCCCCc1cc(C=CC(=O)N2CCN(c3ccc(NC(=N)c4cccs4)cc3)CC2)cc(CCCCCCCCC)c1O
21,130 °C,CCOc1ccccc1OCC1CN=C(N)O1 (stereo not drawn)

row,Structure (SMILES),melting point
1,CC(C)n1nc(-c2nc(C3=CCN(C)CC3)c(N)nc2-c2ccccc2)ccc1=O,209 to 211 °C
2,COc1ccc(C2CNCc3cc(N)ccc32)cc1OC (stereo not drawn),157 to 159 °C
3,O=C(Cc1ccccc1)N1CCC2(c3cccc(O)c3)CCCC2C1 (stereo not drawn),135 to 137 °C
4,"COc1ccc(Br)c2c1CC(NC(C1CC1)C1CC1)CC2 (single isomer, unassigned; (-))",153 to 154 °C
5,N#Cc1nn(-c2c(Cl)cc(C(F)(F)F)cc2Cl)c(C=O)c1SC(F)(F)F,90 °C
6,Oc1ccc2nc(NC3=NCCN3)[nH]c2c1,254 to 258 °C
7,CNc1nc(N)nc(N)n1,269 °C
8,CC(C)OC(=O)C(Cl)(Cl)P(=O)(OC(C)C)c1ccccc1 (stereo not drawn),42 to 44 °C
